Measurements published in patent US7348034B2, “Plant based formulations for improving skin moisture, texture, and appearance” (Access Business Group International LLC, priority 2005, dated 2008).

Key:
[1] = test system: Hs27 human fibroblast / HEK human keratinocyte co-cultures; assay: Elastin synthesis in fibroblast/keratinocyte co-cultures (Fastin Elastin kit); assay type: cell-based; parameters: key: a “+” sign indicates an increase in synthesis; ++: multiple “+” signs indicating a higher increase in synthesis; +++: multiple “+” signs indicating a higher increase in synthesis; ++++: multiple “+” signs indicating a higher increase in synthesis; a “−” sign indicates decrease in synthesis; −−: multiple “−”signs indicating a higher decrease in synthesis; conditions: 10 mg/ml, overnight, elastin in supernatant
Description: Hs27, a human fibroblast cell culture and HEK, a human keratinocyte cell culture, were established in 24 well plates. The cells were exposed to various ingredients of the formulations of the present invention at concentrations of 10 mg/ml. The co-cultures were then incubated overnight. The following day supernatants were collected. The supernatants were analyzed for the presence of elastin using the Fastin Elastin® kit from Biocolor. Liao […]. 2004. “Relationship between collagen fibrils, glycosaminoglycans, and stress relaxation in mitral valve chordae […].” Ann. Biomed. Eng. 32(7):977-983.

[2] = test system: Hs27 human fibroblast / HEK human keratinocyte co-cultures; assay: Pro-collagen synthesis in fibroblast/keratinocyte co-cultures (ELISA); assay type: cell-based; parameters: key: a “+” sign indicates an increase in synthesis; ++: multiple “+” signs indicating a higher increase in synthesis; +++: multiple “+” signs indicating a higher increase in synthesis; ++++: multiple “+” signs indicating a higher increase in synthesis; a “−” sign indicates decrease in synthesis; −−: multiple “−”signs indicating a higher decrease in synthesis; conditions: 10 mg/ml, overnight, pro-collagen in supernatant
Description: Hs27, a human fibroblast cell culture and HEK, a human keratinocyte cell culture, were established in 24 well plates. The cells were exposed to various ingredients used in formulations of the present invention at concentrations of 10 mg/ml. The co-cultures were then incubated overnight. The following day, supernatants were collected. The supernatants were analyzed for the presence of pro-collagen, a soluble precursor of collagen formed by fibroblasts in the process of collagen synthesis. Pro-collagen synthesis was assayed using commercially available ELISA kits. See […], Falabella A, Ochoa S, Zhou […]. “Dermal fibroblasts from venous ulcers are unresponsive to the action of transforming growth factor-beta 1.” J Dermatol Sci. 1997. 16(1):59-66.

Human HEK001 cells = assay: Lipid synthesis, Oil Red O staining; assay type: cell-based; parameters: key to Lipids: a “+” sign indicates an increase in synthesis; ++: multiple “+” signs indicating a higher increase in synthesis; +++: multiple “+” signs indicating a higher increase in synthesis; ++++: multiple “+” signs indicating a higher increase in synthesis; a “−” sign indicates decrease in synthesis; −−: multiple “−”signs indicating a higher decrease in synthesis; conditions: 0.005%, overnight; for Lipids: 0.05%, and 0.5% in media, Oil Red O OD 515 nm
Description: Human HEK001 cells were plated at 2×10^4/well in 96 well plates and were incubated overnight. The following day, the cells were exposed to: glycine, Cherokee rose hips, grape seed extract, Wolfberry extract, Pickled Ume, Ascorbic acid, Chinese Angelica extract, royal jelly, and α-tocopherol, which were diluted into cell culture media at concentrations of 0.005%, 0.05%, and 0.5%. The cells were then again incubated overnight. The following day, the cells were fixed in 1% formaldehyde. Cellular lipids were then stained with Oil Red O® stain. See Ramirez J L, Castro-Munnozledo F, Kuri-Harusch W. 1992. “Quantitation of adipose conversion and triglycerides by staining intracytoplasmic lipids with Oil Red O.” Histochemistry. 97:493-497. Following staining, the lipid bound stain was extracted with isopropanol. The OD of the extracted stain was read at 515 nm.

mouse keratinocytes = mouse keratinocytes in vitro; cited from earlier work
[3] = daily consumption of tomato paste over ten weeks; cited from earlier work
humans = conditions: supplementation with high doses; cited from earlier work
MMP-1 = molecular target: T1, MMP-1 (Homo sapiens, UniProt P03956); assay: MMP-1 enzyme activity (Amersham kit); assay type: biochemical; parameters: key: a “+” sign indicates an increase in synthesis; ++: multiple “+” signs indicating a higher increase in synthesis; +++: multiple “+” signs indicating a higher increase in synthesis; ++++: multiple “+” signs indicating a higher increase in synthesis; a “−” sign indicates decrease in synthesis; −−: multiple “−”signs indicating a higher decrease in synthesis; conditions: samples diluted to 100 μg/ml
T1 construct: purchased Amersham
T1 sequence (P03956 100-469): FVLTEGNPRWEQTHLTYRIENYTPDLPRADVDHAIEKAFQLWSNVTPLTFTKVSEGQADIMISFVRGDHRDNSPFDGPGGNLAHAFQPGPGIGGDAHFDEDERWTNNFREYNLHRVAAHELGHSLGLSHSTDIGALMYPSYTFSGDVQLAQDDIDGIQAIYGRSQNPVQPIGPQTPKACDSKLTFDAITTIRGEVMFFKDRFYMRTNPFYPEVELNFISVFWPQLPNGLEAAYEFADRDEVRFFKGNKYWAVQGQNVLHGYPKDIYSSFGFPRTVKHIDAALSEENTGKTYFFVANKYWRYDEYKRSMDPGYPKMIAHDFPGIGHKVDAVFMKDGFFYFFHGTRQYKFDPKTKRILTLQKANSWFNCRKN
Text: (§1) Commercially available kits were used for testing the effect of various ingredients used in the formulations of the present invention on the activity of the MMP-1, MMP-9, and elastase. Gould L J, Yager D R, McGeehan G M, Diegelmann R F. 1999. “Method to analyze collagenase and gelatinase activity by fibroblasts in culture.” In Vitro Cell. Dev. Biol. Anim. 35(2):75-79. For MMP-1, a kit from Amersham® was used according to the manufacturer's specifications. For MMP-9 and Elastase, kits from Molecular Probes® were used. The samples were prepared in stock solvent at stock concentrations of 100 mg/ml. The samples were diluted to 100 μg/ml using PBS.

MMP-9 = MMP-9 enzyme activity (Molecular Probes kit); assay type: biochemical; parameters: key: a “+” sign indicates an increase in synthesis; ++: multiple “+” signs indicating a higher increase in synthesis; +++: multiple “+” signs indicating a higher increase in synthesis; ++++: multiple “+” signs indicating a higher increase in synthesis; a “−” sign indicates decrease in synthesis; −−: multiple “−”signs indicating a higher decrease in synthesis; conditions: samples diluted to 100 μg/ml
Text: as §1

Elastase = molecular target: T2, Elastase (Sus scrofa, UniProt P00772); assay: Elastase enzyme activity (Molecular Probes kit); assay type: biochemical; parameters: key: a “+” sign indicates an increase in synthesis; ++: multiple “+” signs indicating a higher increase in synthesis; +++: multiple “+” signs indicating a higher increase in synthesis; ++++: multiple “+” signs indicating a higher increase in synthesis; a “−” sign indicates decrease in synthesis; −−: multiple “−”signs indicating a higher decrease in synthesis; conditions: samples diluted to 100 μg/ml
T2 construct: purchased Molecular Probes
Text: as §1

T2 sequence (P00772 27-266): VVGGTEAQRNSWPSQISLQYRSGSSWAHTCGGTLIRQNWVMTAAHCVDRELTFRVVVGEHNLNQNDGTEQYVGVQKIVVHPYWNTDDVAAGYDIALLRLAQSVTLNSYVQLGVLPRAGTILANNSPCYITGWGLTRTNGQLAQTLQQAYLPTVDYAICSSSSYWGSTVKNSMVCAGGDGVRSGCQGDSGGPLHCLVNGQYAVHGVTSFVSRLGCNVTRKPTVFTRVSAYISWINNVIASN

| Structure (SMILES) | Elastin [1] | Collagen [2] | Lipids (Human HEK001 cells) | other results |
| --- | --- | --- | --- | --- |
| O=C1O[C@H]([C@@H](O)CO)C(O)=C1O [Ascorbic acid] | + | ++++ | − | UVB-induced oxidative damage (mouse keratinocytes): shown to reduce UVB-induced oxidative damage in mouse |
| NCC(=O)O [Glycine] | − | + | − |  |
| CC(C)=CCC/C(C)=C/C=C/C(C)=C/C=C/C(C)=C/C=C/C=C(C)/C=C/C=C(C)/C=C/C=C(\C)CCC=C(C)C [Lycopene] |  |  |  | protection against erythema formation following UV-irradiation [3]: a period of ten weeks provides protection against erythema formation |
| CC1=C(/C=C/C(C)=C/C=C/C(C)=C/C=C/C=C(C)/C=C/C=C(C)/C=C/C2=C(C)CCCC2(C)C)C(C)(C)CCC1 [beta-carotene] |  |  |  | protection against UV-induced erythema (humans): with high doses of beta-carotene protects against UV-induced |
| Cc1c(C)c2c(c(C)c1O)CC[C@@](C)(CCC[C@H](C)CCC[C@H](C)CCCC(C)C)O2 [α-tocopherol] | − | − | + | MMP-1 (MMP-1): −; MMP-9 (MMP-9): −; induction of lipid synthesis (Human HEK001 cells; 0.05%, and 0.5%, Oil Red O): demonstrated the ability to induce lipid synthesis; Elastase (Elastase): − |
